# Results: US6472348B1, “Pyridone derivatives and herbicides” (Kumiai Chemical Industry Co., Ltd., priority 1996, dated 2002)
# Tests used:
# Type in all cases: in vivo
# barnyardgrass (Ec) [1] = test: Test Example 1: herbicidal effects by paddy field soil treatment; settings: 100 g of the active ingredient per 10 ares, 21st day after the application, index 0-5 of Table 47;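 further: grade of growth control; 5 = at least 90%; 4 = 70 to 90%; 3 = 50 to 70%; 2 = 30 to 50%; 1 = 10 to 30%; 0 = under 10%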
# Summary of the method: (§1)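 Greenhouse pot test in flooded paddy soil, dosed at 100 g a.i. per 10 ares; effect scored on day 21.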
# bulrush (Sc) = test: as above; settings: 100 g of the active ingredient per 10 ares, 21st day after the application, index 0-5 of Table 47;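 further: grade of growth control; 5 = at least 90%; 4 = 70 to 90%; 3 = 50 to 70%; 2 = 30 to 50%; 1 = 10 to 30%; 0 = under 10%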
# Summary of the method: as §1
# monochoria (Mo) = test: as above; settings: 100 g of the active ingredient per 10 ares, 21st day after the application, index 0-5 of Table 47;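 further: grade of growth control; 5 = at least 90%; 4 = 70 to 90%; 3 = 50 to 70%; 2 = 30 to 50%; 1 = 10 to 30%; 0 = under 10%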
# Summary of the method: as §1
# Digitaria ciliaris (Di) = test: Test Example 2: herbicidal effects by upland field soil treatment; settings: 100 g of the active ingredient per 10 ares, 21st day after the application, index 0-5 of Table 47;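 further: grade of growth control; 5 = at least 90%; 4 = 70 to 90%; 3 = 50 to 70%; 2 = 30 to 50%; 1 = 10 to 30%; 0 = under 10%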
# Text: (§2) (Test on Herbicidal Effects by Upland Field Soil Treatment)
# barnyardgrass (Ec) [2] = test: as above; settings: 100 g of the active ingredient per 10 ares, 21st day after the application, index 0-5 of Table 47
# Text: as §2
# [3] = system: common lambsquarters (Ch); test: as above; settings: 100 g of the active ingredient per 10 ares, 21st day after the application, index 0-5 of Table 47
# Text: as §2
# pale smartweed (Po) [4] = test: as above; settings: 100 g of the active ingredient per 10 ares, 21st day after the application, index 0-5 of Table 47
# Text: as §2
# rice flatsedge (Ci) [5] = test: as above; settings: 100 g of the active ingredient per 10 ares, 21st day after the application, index 0-5 of Table 47
# Text: as §2
# slender amaranth (Am) [6] = test: as above; settings: 100 g of the active ingredient per 10 ares, 21st day after the application, index 0-5 of Table 47
# Text: as §2
# Diaitaria ciliaris (Di) = test: Test Example 3: herbicidal effects by upland field foliage treatment; parameters: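 grade of growth control; 5 = at least 90%; 4 = 70 to 90%; 3 = 50 to 70%; 2 = 30 to 50%; 1 = 10 to 30%; 0 = under 10%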; settings: 100 g of the active ingredient per 10 ares, evaluated on the 14th day after treatment
# Summary of the method: (§3)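 Scoring used a standard effect scale on the 14th day post-treatment, with plants held in a greenhouse throughout. Foliar application was made to weeds raised from seed in sand-filled pots for 2 weeks.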
# barnyardgrass (Ec) [7] = test: as above; parameters: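 grade of growth control; 5 = at least 90%; 4 = 70 to 90%; 3 = 50 to 70%; 2 = 30 to 50%; 1 = 10 to 30%; 0 = under 10%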; settings: 100 g of the active ingredient per 10 ares, evaluated on the 14th day after treatment
# Summary of the method: as §3
# [8] = system: common lambsquarters (Ch); test: as above; parameters: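 grade of growth control; 5 = at least 90%; 4 = 70 to 90%; 3 = 50 to 70%; 2 = 30 to 50%; 1 = 10 to 30%; 0 = under 10%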; settings: 100 g of the active ingredient per 10 ares, evaluated on the 14th day after treatment
# Summary of the method: as §3
# pale smartweed (Po) [9] = test: as above; parameters: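 grade of growth control; 5 = at least 90%; 4 = 70 to 90%; 3 = 50 to 70%; 2 = 30 to 50%; 1 = 10 to 30%; 0 = under 10%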; settings: 100 g of the active ingredient per 10 ares, evaluated on the 14th day after treatment
# Summary of the method: as §3
# rice flatsedge (Ci) [10] = test: as above; parameters: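 grade of growth control; 5 = at least 90%; 4 = 70 to 90%; 3 = 50 to 70%; 2 = 30 to 50%; 1 = 10 to 30%; 0 = under 10%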; settings: 100 g of the active ingredient per 10 ares, evaluated on the 14th day after treatment
# Summary of the method: as §3
# slender amaranth (Am) [11] = test: as above; parameters: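 grade of growth control; 5 = at least 90%; 4 = 70 to 90%; 3 = 50 to 70%; 2 = 30 to 50%; 1 = 10 to 30%; 0 = under 10%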; settings: 100 g of the active ingredient per 10 ares, evaluated on the 14th day after treatment
# Summary of the method: as §3
compound,measurement,setting,value
Cn1c(C(F)(F)F)ccc(-c2cc(OCC(=O)O)c(Cl)cc2F)c1=O [1-105],Herbicidal effects Ec,barnyardgrass (Ec) [1],5
same,Herbicidal effects Sc,bulrush (Sc),5
same,Herbicidal effects Mo,monochoria (Mo),5
same,Herbicidal effects Di,Digitaria ciliaris (Di),5
same,Herbicidal effects Ec,barnyardgrass (Ec) [2],5
same,Herbicidal effects Ch,[3],5
same,Herbicidal effects Po,pale smartweed (Po) [4],5
same,Herbicidal effects Ci,rice flatsedge (Ci) [5],5
same,Herbicidal effects Am,slender amaranth (Am) [6],5
same,Herbicidal effects Di,Diaitaria ciliaris (Di),5
same,Herbicidal effects Ec,barnyardgrass (Ec) [7],5
same,Herbicidal effects Ch,[8],5
same,Herbicidal effects Po,pale smartweed (Po) [9],5
same,Herbicidal effects Ci,rice flatsedge (Ci) [10],5
same,Herbicidal effects Am,slender amaranth (Am) [11],5
Cn1c(C(F)(F)F)ccc(-c2cc(C3OCCO3)c(Cl)cc2F)c1=O [1-133],Herbicidal effects Ec,barnyardgrass (Ec) [1],5
same,Herbicidal effects Sc,bulrush (Sc),5
same,Herbicidal effects Mo,monochoria (Mo),5
same,Herbicidal effects Di,Digitaria ciliaris (Di),5
same,Herbicidal effects Ec,barnyardgrass (Ec) [2],5
same,Herbicidal effects Ch,[3],5
same,Herbicidal effects Po,pale smartweed (Po) [4],5
same,Herbicidal effects Ci,rice flatsedge (Ci) [5],5
same,Herbicidal effects Am,slender amaranth (Am) [6],5
same,Herbicidal effects Di,Diaitaria ciliaris (Di),5
same,Herbicidal effects Ec,barnyardgrass (Ec) [7],5
same,Herbicidal effects Ch,[8],5
same,Herbicidal effects Po,pale smartweed (Po) [9],5
same,Herbicidal effects Ci,rice flatsedge (Ci) [10],5
same,Herbicidal effects Am,slender amaranth (Am) [11],5
Cn1c(C(F)(F)F)ccc(-c2cc(CO)c(Cl)cc2F)c1=O [1-135],Herbicidal effects Ec,barnyardgrass (Ec) [1],5
same,Herbicidal effects Sc,bulrush (Sc),5
same,Herbicidal effects Mo,monochoria (Mo),5
same,Herbicidal effects Di,Digitaria ciliaris (Di),5
same,Herbicidal effects Ec,barnyardgrass (Ec) [2],5
same,Herbicidal effects Ch,[3],5
same,Herbicidal effects Po,pale smartweed (Po) [4],5
same,Herbicidal effects Ci,rice flatsedge (Ci) [5],5
same,Herbicidal effects Am,slender amaranth (Am) [6],5
same,Herbicidal effects Di,Diaitaria ciliaris (Di),5
same,Herbicidal effects Ec,barnyardgrass (Ec) [7],5
same,Herbicidal effects Ch,[8],5
same,Herbicidal effects Po,pale smartweed (Po) [9],5
same,Herbicidal effects Ci,rice flatsedge (Ci) [10],5
same,Herbicidal effects Am,slender amaranth (Am) [11],5
CCS(=O)(=O)N(C)c1cc(-c2ccc(C(F)(F)F)n(C)c2=O)c(F)cc1Cl [1-140],Herbicidal effects Ec,barnyardgrass (Ec) [1],5
same,Herbicidal effects Sc,bulrush (Sc),5
same,Herbicidal effects Mo,monochoria (Mo),5
same,Herbicidal effects Di,Digitaria ciliaris (Di),5
same,Herbicidal effects Ec,barnyardgrass (Ec) [2],5
same,Herbicidal effects Ch,[3],5
same,Herbicidal effects Po,pale smartweed (Po) [4],5
same,Herbicidal effects Ci,rice flatsedge (Ci) [5],5
same,Herbicidal effects Am,slender amaranth (Am) [6],5
same,Herbicidal effects Di,Diaitaria ciliaris (Di),5
same,Herbicidal effects Ec,barnyardgrass (Ec) [7],4
same,Herbicidal effects Ch,[8],5
same,Herbicidal effects Po,pale smartweed (Po) [9],5
same,Herbicidal effects Ci,rice flatsedge (Ci) [10],5
same,Herbicidal effects Am,slender amaranth (Am) [11],5
Cn1c(C(F)(F)F)ccc(-c2cc(C(=O)[O-])c(Cl)cc2F)c1=O.[Na+] [1-144],Herbicidal effects Ec,barnyardgrass (Ec) [1],5
same,Herbicidal effects Sc,bulrush (Sc),5
same,Herbicidal effects Mo,monochoria (Mo),5
same,Herbicidal effects Di,Digitaria ciliaris (Di),5
same,Herbicidal effects Ec,barnyardgrass (Ec) [2],5
same,Herbicidal effects Ch,[3],5
same,Herbicidal effects Po,pale smartweed (Po) [4],5
same,Herbicidal effects Ci,rice flatsedge (Ci) [5],5
same,Herbicidal effects Am,slender amaranth (Am) [6],5
same,Herbicidal effects Di,Diaitaria ciliaris (Di),5
same,Herbicidal effects Ec,barnyardgrass (Ec) [7],5
same,Herbicidal effects Ch,[8],5
same,Herbicidal effects Po,pale smartweed (Po) [9],5
same,Herbicidal effects Ci,rice flatsedge (Ci) [10],5
same,Herbicidal effects Am,slender amaranth (Am) [11],5
CCCCOC(=O)COc1cc(-c2ccc(C(F)(F)F)n(C)c2=O)c(F)cc1Cl [1-148],Herbicidal effects Ec,barnyardgrass (Ec) [1],5
same,Herbicidal effects Sc,bulrush (Sc),5
same,Herbicidal effects Mo,monochoria (Mo),5
same,Herbicidal effects Di,Digitaria ciliaris (Di),5
same,Herbicidal effects Ec,barnyardgrass (Ec) [2],5
same,Herbicidal effects Ch,[3],5
same,Herbicidal effects Po,pale smartweed (Po) [4],5
same,Herbicidal effects Ci,rice flatsedge (Ci) [5],5
same,Herbicidal effects Am,slender amaranth (Am) [6],5
same,Herbicidal effects Di,Diaitaria ciliaris (Di),5
same,Herbicidal effects Ec,barnyardgrass (Ec) [7],5
same,Herbicidal effects Ch,[8],5
same,Herbicidal effects Po,pale smartweed (Po) [9],5
same,Herbicidal effects Ci,rice flatsedge (Ci) [10],5
same,Herbicidal effects Am,slender amaranth (Am) [11],5
CCCCCCOC(=O)COc1cc(-c2ccc(C(F)(F)F)n(C)c2=O)c(F)cc1Cl [1-149],Herbicidal effects Ec,barnyardgrass (Ec) [1],5
same,Herbicidal effects Sc,bulrush (Sc),5
same,Herbicidal effects Mo,monochoria (Mo),5
same,Herbicidal effects Di,Digitaria ciliaris (Di),5
same,Herbicidal effects Ec,barnyardgrass (Ec) [2],5
same,Herbicidal effects Ch,[3],5
same,Herbicidal effects Po,pale smartweed (Po) [4],5
same,Herbicidal effects Ci,rice flatsedge (Ci) [5],5
same,Herbicidal effects Am,slender amaranth (Am) [6],5
same,Herbicidal effects Di,Diaitaria ciliaris (Di),5
same,Herbicidal effects Ec,barnyardgrass (Ec) [7],5
same,Herbicidal effects Ch,[8],5
same,Herbicidal effects Po,pale smartweed (Po) [9],5
same,Herbicidal effects Ci,rice flatsedge (Ci) [10],5
same,Herbicidal effects Am,slender amaranth (Am) [11],5
CC=CCOc1cc(-c2ccc(C(F)(F)F)n(C)c2=O)c(F)cc1Cl [1-152],Herbicidal effects Ec,barnyardgrass (Ec) [1],5
same,Herbicidal effects Sc,bulrush (Sc),5
same,Herbicidal effects Mo,monochoria (Mo),5
same,Herbicidal effects Di,Digitaria ciliaris (Di),5
same,Herbicidal effects Ec,barnyardgrass (Ec) [2],5
same,Herbicidal effects Ch,[3],5
same,Herbicidal effects Po,pale smartweed (Po) [4],5
same,Herbicidal effects Ci,rice flatsedge (Ci) [5],5
same,Herbicidal effects Am,slender amaranth (Am) [6],5
same,Herbicidal effects Di,Diaitaria ciliaris (Di),5
same,Herbicidal effects Ec,barnyardgrass (Ec) [7],5
same,Herbicidal effects Ch,[8],5
same,Herbicidal effects Po,pale smartweed (Po) [9],5
same,Herbicidal effects Ci,rice flatsedge (Ci) [10],5
same,Herbicidal effects Am,slender amaranth (Am) [11],5
COC(=O)c1cc(-c2ccc(C(F)(F)F)n(C)c2=O)c(F)cc1Cl [1-157],Herbicidal effects Ec,barnyardgrass (Ec) [1],5
same,Herbicidal effects Sc,bulrush (Sc),5
same,Herbicidal effects Mo,monochoria (Mo),5
same,Herbicidal effects Di,Digitaria ciliaris (Di),5
same,Herbicidal effects Ec,barnyardgrass (Ec) [2],5
same,Herbicidal effects Ch,[3],5
same,Herbicidal effects Po,pale smartweed (Po) [4],5
same,Herbicidal effects Ci,rice flatsedge (Ci) [5],5
same,Herbicidal effects Am,slender amaranth (Am) [6],5
same,Herbicidal effects Di,Diaitaria ciliaris (Di),5
same,Herbicidal effects Ec,barnyardgrass (Ec) [7],5
same,Herbicidal effects Ch,[8],5
same,Herbicidal effects Po,pale smartweed (Po) [9],5
same,Herbicidal effects Ci,rice flatsedge (Ci) [10],5
same,Herbicidal effects Am,slender amaranth (Am) [11],5
